Consider 7 molecules from US20240148821A1, “PHARMACEUTICAL USE OF CYCLIC PEPTIDE COMPOUND” (CHUGAI SEIYAKU KABUSHIKI KAISHA, priority 2021, published 2024).

Bridge positions count the residues as written; N and C are the ends. Square brackets hold non-standard residues; d marks the D form. Peptide text beside a SMILES is read from it. * marks the point of attachment. hPhe(3-Cl-4-CF3) = N[C@@H](CCc1ccc(C(F)(F)F)c(Cl)c1)C(=O)O; NMePhe(4-F) = CN[C@@H](Cc1ccc(F)cc1)C(=O)O; NMeCha = CN[C@@H](CC1CCCCC1)C(=O)O; NMeChg = CN[C@H](C(=O)O)C1CCCCC1; NMeF = CN[C@@H](Cc1ccccc1)C(=O)O; NMeD = CN[C@@H](CC(=O)O)C(=O)O; NMeL = CN[C@@H](CC(C)C)C(=O)O; NMeV = CN[C@H](C(=O)O)C(C)C; d(β3hA) = C[C@@H](N)CC(=O)O; NMeAbu = CC[C@H](NC)C(=O)O; NMeA = CN[C@@H](C)C(=O)O; Piperidide = C1CCN(*)CC1; dNMeA = CN[C@H](C)C(=O)O; Ac5c = NC1(C(=O)O)CCCC1; Aze = O=C(O)[C@@H]1CCN1; Sar = CNCC(=O)O; Propyl = CCC*

In the test the test system is Human pancreatic cancer cell line AsPC-1 (G12D mutation Kras). The test is described as follows: AsPC-1 cell growth inhibition (AsPC-1 CGI). In kind it is cell-based. The settings on record: read-out: AsPC-1 cell growth inhibition, 50% growth inhibitory concentration (IC50 value); 96 hours, CellTiter-Glo, values classified in ranges.
Protocol: Test compounds were serially dilated with dimethyl sulfoxide, and 200 nL was then dispensed to a U-bottom 96-well plate using Labcyte Echo. […] The cell suspension was dispensed to a. plate containing a test compound at 100 μL per well and incubated at 37° C. in a 5% carbon dioxide gas incubator. 96 hours later, 80 μL of CellTiter-Glo (Promega) was added to each well and fluorescence was measured.
In the case of `CC[C@H](C)[C@@H]1NC(=O)[C@H](C)N(C)C(=O)C[C@@H](C)NC(=O)[C@H](C(C)C)N(C)C(=O)C2(CCCC2)NC(=O)[C@@H]2CCCN2C(=O)[C@H](CCc2ccc(C(F)(F)F)c(Cl)c2)NC(=O)CN(C)C(=O)[C@H](Cc2ccc(F)cc2)N(C)C(=O)[C@@H]2CCCN2C(=O)CN(C)C1=O` [Compound 1732] (cyclo([Ac5c][NMeV][d(β3hA)][NMeA]I[Sar]P[NMePhe(4-F)][Sar][hPhe(3-Cl-4-CF3)]P)), the IC50 was over 500 nM.
On to `CCCOC[C@@H]1NC(=O)[C@H](CC(C)C)N(C)C(=O)C[C@@H](C(=O)N2CCCCC2)N(C)C(=O)[C@H](C2CCCCC2)N(C)C(=O)C2(CCCC2)NC(=O)[C@@H]2CCCN2C(=O)[C@H](CCc2ccc(C(F)(F)F)c(Cl)c2)NC(=O)CN(C)C(=O)[C@H](CC2CCCCC2)N(C)C(=O)CN(C)C(=O)CN(C)C1=O` [Compound 1736] ([NMeL]S(Propyl)[Sar][Sar][NMeCha][Sar][hPhe(3-Cl-4-CF3)]P[Ac5c][NMeChg][NMeD]-Piperidide; lactam N-11), for which the IC50 was over 500 nM.
For the molecule `CC[C@H](C)[C@@H]1NC(=O)[C@H](CC(C)C)N(C)C(=O)C[C@@H](C(=O)N2CCCCC2)N(C)C(=O)[C@H](CC)N(C)C(=O)C2(CCCC2)NC(=O)[C@@H]2CCCN2C(=O)[C@H](CCc2ccc(C(F)(F)F)c(Cl)c2)NC(=O)CN(C)C(=O)[C@H](CC2CCCCC2)N(C)C(=O)CN(C)C(=O)CN(C)C1=O` [Compound 1741] ([NMeL]I[Sar][Sar][NMeCha][Sar][hPhe(3-Cl-4-CF3)]P[Ac5c][NMeAbu][NMeD]-Piperidide; lactam N-11), the IC50 is over 500 nM.
Take `CC[C@H](C)[C@@H]1NC(=O)[C@H](CC(C)C)N(C)C(=O)C[C@@H](C(=O)N2CCCCC2)N(C)C(=O)[C@H](C2CCCCC2)N(C)C(=O)C2(CCCC2)NC(=O)[C@@H]2CCCN2C(=O)[C@H](CCc2ccc(C(F)(F)F)c(Cl)c2)NC(=O)CN(C)C(=O)[C@H](CC)N(C)C(=O)CN(C)C(=O)CN(C)C1=O` [Compound 1743] ([NMeL]I[Sar][Sar][NMeAbu][Sar][hPhe(3-Cl-4-CF3)]P[Ac5c][NMeChg][NMeD]-Piperidide; lactam N-11): the IC50 was over 500 nM.
As to `CC[C@H](C)[C@@H]1NC(=O)[C@H](C)N(C)C(=O)C[C@@H](C(=O)N2CCCCC2)N(C)C(=O)[C@H](C(C)C)N(C)C(=O)C2(CCCC2)NC(=O)[C@@H]2CCCN2C(=O)[C@H](CCc2ccc(C(F)(F)F)c(Cl)c2)NC(=O)CN(C)C(=O)[C@H](Cc2ccccc2)N(C)C(=O)[C@@H]2CCCN2C(=O)CN(C)C1=O` [Compound 1753] ([NMeA]I[Sar]P[NMeF][Sar][hPhe(3-Cl-4-CF3)]P[Ac5c][NMeV][NMeD]-Piperidide; lactam N-11), the IC50 was over 500 nM.
The same measure for `CC(C)C[C@@H]1NC(=O)[C@H](CC(C)C)N(C)C(=O)C[C@@H](C(=O)N2CCCCC2)N(C)C(=O)[C@H](C(C)C)N(C)C(=O)C2(CCCC2)NC(=O)[C@@H]2CCCN2C(=O)[C@H](CCc2ccc(C(F)(F)F)c(Cl)c2)NC(=O)CN(C)C(=O)[C@H](CC2CCCCC2)N(C)C(=O)[C@@H]2CCN2C(=O)[C@H](C)N(C)C1=O` [Compound 1754] ([NMeL]L[NMeA][Aze][NMeCha][Sar][hPhe(3-Cl-4-CF3)]P[Ac5c][NMeV][NMeD]-Piperidide; lactam N-11): over 500 nM; for `CC[C@H](C)[C@@H]1NC(=O)[C@H](C)N(C)C(=O)C[C@@H](C(=O)N2CCCCC2)N(C)C(=O)[C@H](C(C)C)N(C)C(=O)C2(CCCC2)NC(=O)[C@@H]2CCCN2C(=O)[C@H](CCc2ccc(C(F)(F)F)c(Cl)c2)NC(=O)[C@@H](C)N(C)C(=O)[C@H](Cc2ccc(F)cc2)N(C)C(=O)CN(C)C(=O)CN(C)C1=O` [Compound 1755] ([NMeA]I[Sar][Sar][NMePhe(4-F)][dNMeA][hPhe(3-Cl-4-CF3)]P[Ac5c][NMeV][NMeD]-Piperidide; lactam N-11): over 500 nM.
